EC50 data for 18 compounds are collected here from patent publication US20160046592A1, “PHARMACEUTICAL COMPOSITION FOR THE TREATMENT OF DIABETES” (Ajinomoto Co., Inc., priority 2013, published 2016).

Counter-ions that a name gives are not always drawn.

This assay concerns the target T1, human GYS1 (glycogen synthase) (Homo sapiens, UniProt P13807).
T1 construct: made in house; host or cells: HEK293T
T1 sequence (P13807 1-737): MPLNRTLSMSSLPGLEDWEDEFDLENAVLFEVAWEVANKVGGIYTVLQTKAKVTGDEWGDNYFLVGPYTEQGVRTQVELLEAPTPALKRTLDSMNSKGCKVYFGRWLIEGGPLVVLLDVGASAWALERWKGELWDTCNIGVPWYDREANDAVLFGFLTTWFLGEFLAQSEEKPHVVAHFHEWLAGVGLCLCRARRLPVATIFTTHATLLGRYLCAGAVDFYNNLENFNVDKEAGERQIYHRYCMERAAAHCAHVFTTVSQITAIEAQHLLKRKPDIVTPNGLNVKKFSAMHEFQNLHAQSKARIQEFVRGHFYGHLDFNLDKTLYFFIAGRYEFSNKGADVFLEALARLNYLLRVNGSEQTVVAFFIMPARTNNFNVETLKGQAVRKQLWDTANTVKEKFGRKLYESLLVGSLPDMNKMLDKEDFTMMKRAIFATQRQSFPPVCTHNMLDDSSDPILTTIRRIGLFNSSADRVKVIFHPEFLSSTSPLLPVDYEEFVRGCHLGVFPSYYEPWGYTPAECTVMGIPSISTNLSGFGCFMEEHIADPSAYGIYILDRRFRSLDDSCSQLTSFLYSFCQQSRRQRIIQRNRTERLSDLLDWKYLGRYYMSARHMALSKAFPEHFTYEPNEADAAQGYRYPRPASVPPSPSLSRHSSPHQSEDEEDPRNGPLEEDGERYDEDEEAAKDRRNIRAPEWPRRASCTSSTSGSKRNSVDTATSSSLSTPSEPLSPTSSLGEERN
Description: Measurement of glycogen synthase activity. Conditions: concentration causing 50% increase in relative activity; 100% = compound of Example 1 of WO/2011/058154 at 10 μM; 10 mM Glucose-6-phosphate; 37° C. for 25 minutes (Examples 1 to 61 and 67 to 82) or 20 minutes (Examples 62 to 66); absorbance at 340 nm. The assay is classed as biochemical. The method, then:
A human GYS1 expression plasmid (pCDNA3.1(+)-hGYS1) was constructed by the following method. By using a human skeletal muscle cDNA of Human MTC Panel I (Takara Bio Inc., 636742) as a template, a human GYS1 gene was amplified by a PCR method using cloning primers (Forward Primer: ATGCCTTTAAACCGCAC, Reverse Primer: TTAGTTACGCTCCTCGC). By using the amplified human GYS1 sequence as a template, restriction enzyme sequences were added by a PCR method using sub-cloning primers (Forward Primer: […], and Reverse Primer: […]), and then the human GYS1 gene was introduced between Xho I and Xba I sites of pCDNA3.1(+) (Invitrogen, V790-20).
Glycogen synthase was prepared by the following method. Human kidney-derived HEK293T cells were seeded in a dish (Thermo Fisher Scientific K.K., 168381) by using a 10% FBS-containing DMEM (Nacalai Tesque, Inc., 0845874) medium, and cultured overnight. Then, by using Lipofectamine LTX (Invitrogen, 15338-100), the cells were transfected with the human GYS1 expression vector according to the attached manual. After culturing under conditions of 37° C. and 5% CO2 for 2 days, the resultant was lysed in a lysis buffer (50 mM Tris-HCl (pH 8.0), 10 mM EDTA, 2 mM EGTA, 100 mM NaF, 1 mM PMSF, 1 mM DTT, and 1× Complete (Roche, 1873580)), homogenized, and then centrifuged at 16000×g at 4° C. for 15 minutes. The precipitated fraction re-dissolved by adding the lysis buffer was used as a glycogen synthase for evaluation.
The glycogen synthase activity was measured by the following method. To a polystyrene 96-well plate, solutions each containing 30 mM glycylglycine (pH 7.3), 40 mM KCl, 20 mM MgCl2, 9.2% DMSO containing one of the test compounds at one of various concentrations, and 10 mM Glucose-6-phosphate (Sigma-Aldrich, G7879) were added at 12 μL/well.
Next, a substrate solution containing 30 mM glycylglycine (pH 7.3), 4.3 mg/mL glycogen (Sigma-Aldrich, G8876), 21.6 mM UDP-glucose (Sigma-Aldrich, U4625), 21.6 mM phosphoenolpyruvic acid (Sigma-Aldrich, P0564), and 4.05 mM NADH (Sigma-Aldrich, N8129) was added at 18 μL/well.
Moreover, an enzyme solution containing 50 mM Tris-HCl (pH 8.0), 27 mM DTT (NACALAI TESQUE, INC., 14128-04), 0.2 mg/mL bovine serum albumin, 0.17 mg/mL glycogen synthase, and 1.5 μL pyruvate kinase/lactate dehydrogenase solution (Sigma-Aldrich, P0294) was added at 18 μL/well to prepare reaction solutions. After the reaction solutions were incubated (at 37° C. for 25 minutes for Examples 1 to 61 and 67 to 82 or at 37° C. for 20 minutes for Examples 62 to 66), the absorbance at 340 nm was measured by using Benchmark Plus (Bio-Rad Laboratories, Inc.).
The activity of each test compound was calculated by the following method. The absorbance at 340 nm of the reaction solution containing the compound and DMSO was subtracted from the absorbance at 340 nm of a reaction solution not containing the compound but containing only DMSO to calculate the change (ΔA340) in absorbance. The relative activity (%) of the test compound at each of the various concentrations was calculated, where the ΔA340 of a reaction solution containing the compound of Example 1 of WO/2011/058154 at a final concentration of 10 μM was taken as 100%. EC50 representing the concentration of the compound at which an increase in the relative activity by 50% was caused was calculated using XLfit (idbs).
Take `CSc1cc(F)c(F)cc1-c1ccc(OCc2cccc(C(=O)N(CCNC(C)=O)CC(=O)O)c2)cc1` [Example 44, 2-[2-Acetamidoethyl-[3-[[4-(4,5-difluoro-2-methylsulfanyl-phenyl)phenoxy]methyl]benzoyl]amino]acetic Acid]: the EC50 stood at 25 nM.

With `CSc1cc(F)c(F)cc1-c1ccc(OCc2cccc(C(=O)N(CC(=O)O)Cc3coc(C)n3)c2)cc1` [Example 67, 2-[[3-[[4-(4,5-Difluoro-2-methylsulfanyl-phenyl)phenoxy]methyl]benzoyl]-[(2-methyloxazol-4-yl)methyl]amino]acetic Acid], the EC50 stood at 13 nM.

In the case of `CS(=O)(=O)CCCN(CC(=O)O)C(=O)c1cccc(COc2ccc(-c3cc(F)c(F)c4ccoc34)cc2)c1` [Example 77, 2-[[3-[[4-(4,5-Difluorobenzofuran-7-yl)phenoxy]methyl]benzoyl]-(3-methylsulfonylpropyl)amino]acetic Acid], the EC50 is 20 nM.

The compound `CSc1cc(F)c(F)cc1-c1ccc(OCc2cccc(C(=O)N(CC(=O)O)Cc3ccncc3)c2)cc1` [Example 19, 2-[[3-[[4-(4,5-Difluoro-2-methylsulfanyl-phenyl)phenoxy]methyl]benzoyl]-(4-pyridylmethyl)amino]acetic Acid Trifluoroacetate] returned an EC50 of 3.4 nM.

Compound `CSc1cc(F)c(F)cc1-c1ccc(OCc2cccc(C(=O)N(CC(=O)O)Cc3cn(C)cn3)c2)cc1` [Example 74, 2-[[3-[[4-(4,5-Difluoro-2-methylsulfanyl-phenyl)phenoxy]methyl]benzoyl]-[(1-methylimidazol-4-yl)methyl]amino]acetic Acid] had an EC50 of 8 nM.

Consider `CSc1cc(F)c(F)cc1-c1ccc(OCc2cccc(C(=O)N(CC(=O)O)Cc3noc(C)n3)c2)cc1` [Example 69, 2-[[3-[[4-(4,5-Difluoro-2-methylsulfanyl-phenyl)phenoxy]methyl]benzoyl]-[(5-methyl-1,2,4-oxadiazol-3-yl)methyl]amino]acetic Acid], for which the EC50 was 20 nM.

Compound `CSc1cc(F)c(F)cc1-c1ccc(OCc2cccc(C(=O)N3C(C(N)=O)CC[C@H]3C(=O)O)c2)cc1` (single isomer, unassigned) [Example 57, (2S,5R) or (2S,5S)-5-Carbamoyl-1-[3-[[4-(4,5-difluoro-2-methylsulfanyl-phenyl)phenoxy]methyl]benzoyl]pyrrolidine-2-carboxylic Acid] registered an EC50 of 10 nM.

Turning to `CCNCCN(CC(=O)O)C(=O)c1cccc(COc2ccc(-c3cc(F)c(F)cc3SC)cc2)c1` [Example 43, 2-[[3-[[4-(4,5-Difluoro-2-methylsulfanyl-phenyl)phenoxy]methyl]benzoyl]-[2-(ethylamino)ethyl]amino]acetic Acid Trifluoroacetate], the EC50 was 19 nM.

As to `CSc1cc(F)c(F)cc1-c1ccc(OCc2cccc(C(=O)N(CC(=O)O)[C@H]3CC[C@@H](N)CC3)c2)cc1` [Example 48, 2-[(4-Aminocyclohexyl)-[3-[[4-(4,5-difluoro-2-methylsulfanyl-phenyl)phenoxy]methyl]benzoyl]amino]acetic Acid Trifluoroacetate], the EC50 came out at 13 nM.

`CNS(=O)(=O)CCN(CC(=O)O)C(=O)c1cccc(COc2ccc(-c3cc(F)c(F)cc3SC)cc2)c1` [Example 56, 2-[[3-[[4-(4,5-Difluoro-2-methylsulfanyl-phenyl)phenoxy]methyl]benzoyl]-[2-(methylsulfamoyl)ethyl]amino]acetic Acid] had an EC50 of under 3 nM.

Consider `CSc1cc(F)c(F)cc1-c1ccc(OCc2cccc(C(=O)N(CC(=O)O)CC(=O)N3CCCC3)c2)cc1` [Example 25, 2-[[3-[[4-(4,5-Difluoro-2-methylsulfanyl-phenyl)phenoxy]methyl]benzoyl]-(2-oxo-2-pyrrolidin-1-yl-ethyl)amino]acetic Acid], for which the EC50 amounted to 15 nM.

On to `COC(C)(C)CN(CC(=O)O)C(=O)c1cccc(COc2ccc(-c3cc(F)c(F)cc3SC)cc2)c1` [Example 23, 2-[[3-[[4-(4,5-Difluoro-2-methylsulfanyl-phenyl)phenoxy]methyl]benzoyl]-(2-methoxy-2-methyl-propyl)amino]acetic Acid], for which the EC50 was found to be 17 nM.

Consider `CSc1cc(F)c(F)cc1-c1ccc(OCc2cccc(C(=O)N3CC[C@H](O)[C@H]3C(=O)O)c2)cc1` [Example 5, (2S,3S)-1-[3-[[4-(4,5-Difluoro-2-methylsulfanyl-phenyl)phenoxy]methyl]benzoyl]-3-hydroxy-pyrrolidine-2-carboxylic Acid], for which the EC50 is under 10 nM.

In turn, `CSc1cc(F)c(F)cc1-c1ccc(OCc2cccc(C(=O)N(CC(=O)O)CC3CCCNC3)c2)cc1` (stereo not drawn) [Example 50, 2-[[3-[[4-(4,5-Difluoro-2-methylsulfanyl-phenyl)phenoxy]methyl]benzoyl]-(3-piperidylmethyl)amino]acetic Acid Trifluoroacetate] returned an EC50 of 6.3 nM.

On to `CC(C)(O)CCN(CC(=O)O)C(=O)c1cccc(COc2ccc(-c3cc(F)c(F)c4ccoc34)cc2)c1` [Example 18, 2-[[3-[[4-(4,5-Difluorobenzofuran-7-yl)phenoxy]methyl]benzoyl]-(3-hydroxy-3-methyl-butyl)amino]acetic Acid], for which the EC50 stood at 7.3 nM.

`CSc1cc(F)c(F)cc1-c1ccc(OCc2cccc(C(=O)N(CC(=O)O)Cc3ccnn3C)c2)cc1` [Example 55, 2-[[3-[[4-(4,5-Difluoro-2-methylsulfanyl-phenyl)phenoxy]methyl]benzoyl]-[(2-methylpyrazol-3-yl)methyl]amino]acetic Acid]: the EC50 is 22 nM.

For the compound `CSc1cc(F)c(F)cc1-c1ccc(OCc2cccc(C(=O)N(CCC#N)CC(=O)O)c2)cc1` [Example 7, 2-[2-Cyanoethyl-[3-[[4-(4,5-difluoro-2-methylsulfanyl-phenyl)phenoxy]methyl]benzoyl]amino]acetic Acid], the EC50 is 11 nM.

As for `CC(=O)N1CCC(CN(CC(=O)O)C(=O)c2cccc(COc3ccc(-c4cc(F)c(F)c5ccoc45)cc3)c2)CC1` [Example 81, 2-[(1-Acetyl-4-piperidyl)methyl-[3-[[4-(4,5-difluorobenzofuran-7-yl)phenoxy]methyl]benzoyl]amino]acetic Acid], the EC50 worked out at 20 nM.
